In publication PMC6522510 (Nature Communications, 2019):
Where two headings read alike, the source gives them in different places.

What was measured:
Parameters in all cases: species or system AML cell lines (8); Primary HTS, single concentration about 10 uM, Cell Titer Glo viability; log10 luminescence, per cent inhibition relative to cycloheximide control
[1] = tested on: CHRF288-11
[2] = tested on: CMK
[3] = tested on: CMS
[4] = tested on: M07e
[5] = tested on: ML-2
[6] = tested on: MOLM-13
[7] = tested on: MV4-11
[8] = tested on: U937
[9] = 72 h, relative to cycloheximide control, log10 luminescence; inhibitor
[10] = 72 h, relative to cycloheximide control, log10 luminescence, inhibitor, CHRF288-11 %inh, 10 µM
[11] = 72 h, relative to cycloheximide control, log10 luminescence, inhibitor, CMK %inh, 10 µM
[12] = 72 h, relative to cycloheximide control, log10 luminescence, inhibitor, CMS %inh, 10 µM
[13] = 72 h, relative to cycloheximide control, log10 luminescence, inhibitor, M07e %inh, 10 µM
[14] = 72 h, relative to cycloheximide control, log10 luminescence, inhibitor, ML-2 %inh, 10 µM
[15] = 72 h, relative to cycloheximide control, log10 luminescence, inhibitor, MOLM-13 %inh, 10 µM
[16] = 72 h, relative to cycloheximide control, log10 luminescence, inhibitor, MV4-11 %inh, 10 µM
[17] = 72 h, relative to cycloheximide control, log10 luminescence, inhibitor, U937 %inh, 10 µM

SMILES	CHRF288-11 %inh [1, 9] [%]	CMK %inh [2, 9] [%]	CMS %inh [3, 9] [%]	M07e %inh [4, 9] [%]	ML-2 %inh [5, 9] [%]	MOLM-13 %inh [6, 9] [%]	MV4-11 %inh [7, 9] [%]	U937 %inh [8, 9] [%]	further results
CC[C@H]1OC(=O)[C@H](C)[C@@H](O[C@H]2C[C@@](C)(OC)[C@@H](O)[C@H](C)O2)[C@H](C)[C@@H](O[C@@H]2O[C@H](C)C[C@H](N(C)C)[C@H]2O)[C@](C)(O)C[C@@H](C)[C@@H]2N[C@@H](COCCOC)O[C@H]([C@H]2C)[C@]1(C)O [SJ000286040-5, DIRITHROMYCIN]									CHRF288-11 %inh ([1]; 72 h, 10 µM, inhibitor): 3.137%; CMK %inh ([2]; 72 h, 10 µM, inhibitor): -5.982%; CMS %inh ([3]; 72 h, 10 µM, inhibitor): -0.1114%; M07e %inh ([4]; 72 h, 10 µM, inhibitor): -2.366%; ML-2 %inh ([5]; 72 h, 10 µM, inhibitor): -0.7146%; MOLM-13 %inh ([6]; 72 h, 10 µM, inhibitor): -2.496%; MV4-11 %inh ([7]; 72 h, 10 µM, inhibitor): -3.548%; U937 %inh ([8]; 72 h, 10 µM, inhibitor): -1.919%
COc1cc(/C=N/Nc2ncnc3c2cnn3C(C)C)ccc1O [SJ000573267-1, T237/25/6]									CHRF288-11 %inh ([1]; 72 h, 10 µM; inhibitor): 29.61%; CMK %inh ([2]; 72 h, 10 µM; inhibitor): 41.95%; CMS %inh ([3]; 72 h, 10 µM; inhibitor): 9.426%; M07e %inh ([4]; 72 h, 10 µM; inhibitor): 6.424%; ML-2 %inh ([5]; 72 h, 10 µM; inhibitor): 8.895%; MOLM-13 %inh ([6]; 72 h, 10 µM; inhibitor): 52.9%; MV4-11 %inh ([7]; 72 h, 10 µM; inhibitor): 40.62%; U937 %inh ([8]; 72 h, 10 µM; inhibitor): 8.888%
O=C1NC(=NCCc2ccccn2)S/C1=C\c1ccc2ncccc2c1 [SJ000581148-1]	5.232	25.57	10.48	10.8	2.217	58.53	45.12	2.939	
COc1cc[nH]c1/C=C1\C(=O)Nc2ccccc21 [SJ000581028-1]	5.171	2.429	-2.846	0.1646	2.572	93.27	72.48	-1.475	
COc1ccc(COc2ccc(Cc3cnc(N)nc3N)cc2OC)cc1 [SJ000573290-1, U22490/41/5 | GW2580 | CFMS RECEPTOR TYROSINE KINASE INHIBITOR | CSF-1 RECEPTOR INHIBITOR | GW-2580 | GW2580]	2.429	9.776	-2.221	0.1702	2.578	5.043	1.548	5.457	
COc1cc(Nc2ncc3c(C)nc(-c4cccc(Oc5ccccc5)c4)n3n2)cc(OC)c1OC [SJ000573063-1, U19891/44/1]	8.926	25.77	22.07	11.27	2.68	53.84	46.32	10.08	
Cc1cc(O)cc(C)c1/C=C/c1cncc(C(N)=O)c1 [SJ000573068-1, U11805/173/2]	44.74	90.65	51.62	72.97	51.45	75.99	70.37	80.88	
COc1ccc(-c2cc(-c3c[nH]nc3-c3ccccn3)ccn2)cc1 [SJ000573277-1, FFJG/208/167/1]	12.63	4.937	0.9761	1.202	-0.1507	2.31	4.2	7.208	
Nc1c(C(=O)c2cccc(CCCN3CCOCC3)c2)cnn1-c1ccc(F)cc1 [SJ000581033-1]	0.5002	-2.511	-0.1935	1.168	2.815	-0.1425	-0.6007	0.5296	
CCc1c(C)nc2sc3c(N)ncnc3c2c1C [SJ000581155-1]	5.014	26.14	6.427	3.066	1.162	58.52	0.965	2.164	
O=C(Nc1ccc(Oc2ccc3[nH]c(NC(=O)c4ccco4)nc3c2)cc1)Nc1cc(C(F)(F)F)ccc1F [SJ000573033-1, T261/93/1]	89.61	84.76	23.46	35.38	20.85	87.05	70.61	42.07	
CNCC#Cc1c(F)ccc2c1/C(=C/c1[nH]ccc1OC)C(=O)N2 [SJ000580999-1]	56.9	104.6	90.97	73.32	60.28	105.9	85.05	85.1	
CC1/C=C/C=C/C=C/C=C/C=C/C=C/C=C/C(OC2O[C@H](C)[C@@H](O)[C@H](N)[C@@H]2O)CC(O)C(C(=O)O)C(O)CC(=O)CC(O)CC(O)CC(O)CC(=O)CCCC(=O)CC(=O)OC1C(C)CC(C)C(O)CC(=O)c1ccc(N)cc1 (single isomer, unassigned) [SJ000565161-2, CANDICIDIN]									CHRF288-11 %inh [1, 10]: 84.68%; CMK %inh [2, 11]: -1.968%; CMS %inh [3, 12]: 0.8019%; M07e %inh [4, 13]: -1.61%; ML-2 %inh [5, 14]: -0.08515%; MOLM-13 %inh [6, 15]: 0.5936%; MV4-11 %inh [7, 16]: 0.2404%; U937 %inh [8, 17]: -1.702%
CO[C@H]1/C=C/O[C@@]2(C)Oc3c(C)c(O)c4c(O)c(c(/C=N/N5CCN(C6CCCC6)CC5)c(O)c4c3C2=O)NC(=O)/C(C)=C\C=C\[C@H](C)[C@H](O)[C@@H](C)[C@@H](O)[C@@H](C)[C@H](OC(C)=O)[C@@H]1C [SJ000556738-1, RIFAPENTINE]									CHRF288-11 %inh [1, 10]: -0.1419%; CMK %inh [2, 11]: -0.8493%; CMS %inh [3, 12]: 9.958%; M07e %inh [4, 13]: 1.814%; ML-2 %inh [5, 14]: 6.792%; MOLM-13 %inh [6, 15]: 5.251%; MV4-11 %inh [7, 16]: 4.97%; U937 %inh [8, 17]: 33.42%
Nc1c(C(=O)c2ccc(-c3cccnc3)cc2)cnn1-c1ccc(F)cc1 [SJ000581132-1]	1.549	-0.6442	7.229	5.04	-1.014	0.5666	2.713	-1.133	
Fc1ccc(-c2nn3ccccc3c2-c2ccncc2)cc1 [SJ000573260-1, U11781/145/5]	-2.859	8.765	-2.539	0.2861	-1.762	0.1728	4.558	4.651	
